Measured values published in US9226501B2, “Pesticidal compositions and processes related thereto” (Dow AgroSciences LLC, priority 2012, dated 2016).

How the values were obtained:
[1] = tested on: Cabbage Looper (CL) (Trichoplusia ni); test: Bioassay on cabbage looper (CL), 128-well diet tray assay; assay type: in vivo; conditions: for CL Rating: Table 5, prophetic compounds subsequently exemplified, cabbage looper; for pest or weed control at 50 µg/cm2: Trichoplusia ni, 168 h, % mortality, second instar larvae, 50 μg/cm^2 on artificial diet, five to seven days, 25° C., read-out: CL Rating
Experimental: (§1) Certain molecules disclosed in this document were tested against BAW, CEW and CL using procedures described in the following examples. In the reporting of the results, the “BAW & CEW & CL Rating Table” was used (See Table Section).
Bioassays on CL were conducted using a 128-well diet tray assay. One to five second instar CL larvae were placed in each well (3 mL) of the diet tray that had been previously filled with 1 mL of artificial diet to which 50 μg/cm^2 of the test compound (dissolved in 50 μL of 90:10 acetone-water mixture) had been applied (to each of eight wells) and then allowed to dry. Trays were covered with a clear self-adhesive cover, and held at 25° C., 14:10 light-dark for five to seven days. Percent mortality was recorded for the larvae in each well; activity in the eight wells was then averaged. The results are indicated in the table entitled “Table 4: Assay Results Part 2” (See Table Section).

[2] = tested on: Beet Armyworm (BAW) (spodoptera exigua); test: Bioassay on beet armyworm (BAW), 128-well diet tray assay; assay type: in vivo; conditions: for pest or weed control at 50 µg/cm2: Spodoptera exigua, 168 h, % mortality, second instar larvae, 50 μg/cm^2 on artificial diet, five to seven days, 25° C., read-out: BAW Rating
Experimental: as §1
Bioassays on BAW were conducted using a 128-well diet tray assay. One to five second instar BAW larvae were placed in each well (3 mL) of the diet tray that had been previously filled with 1 mL of artificial diet to which 50 μg/cm^2 of the test compound (dissolved in 50 μL of 90:10 acetone-water mixture) had been applied (to each of eight wells) and then allowed to dry. Trays were covered with a clear self-adhesive cover, and held at 25° C., 14:10 light-dark for five to seven days. Percent mortality was recorded for the larvae in each well; activity in the eight wells was then averaged. The results are indicated in the tables entitled “Table 3: Assay Results Part 1” and “Table 4: Assay Results Part 2” (See Table Section).

[3] = Table 5, prophetic compounds subsequently exemplified, beet armyworm

Structure (SMILES)	CL Rating [1]	BAW Rating [2, 3]	pest or weed control at 50 µg/cm2 [1] [%]	also measured
CC(C)(NC(=O)c1ccc(/C=C/C(c2cc(Cl)c(Cl)c(Cl)c2)C(F)(F)F)cc1)C(=O)NCC(F)(F)F (stereo not drawn) [P1636]	A (50-100)	A (50-100)	–	–
CC(NC(=O)c1ccc(/C=C/C(c2cc(Cl)c(Cl)c(Cl)c2)C(F)(F)F)cc1Br)C(=O)NCCF (stereo not drawn) [P1616A]	A (50-100)	A (50-100)	–	–
C[C@@H](NC(=O)c1ccc(/C=C/C(c2ccc(F)c(F)c2F)C(F)(F)F)cc1Br)C(=O)NCC(F)(F)F (stereo partly drawn) [P82]	A (50-100)	A (50-100)	–	–
C[C@@H](NC(=O)c1ccc(/C=C/C(c2cc(Br)c(Cl)c(Br)c2)C(F)(F)F)cc1C(F)(F)F)C(=O)NCC(F)(F)F (stereo partly drawn) [FA27]	–	–	50 to 100	pest or weed control at 50 µg/cm2 [2]: 50 to 100%
CC(C)(C)CNC(=O)C(C)(C)NC(=O)c1ccc(/C=C/C(c2cc(Cl)c(Cl)c(Cl)c2)C(F)(F)F)cc1Br (stereo not drawn) [FA15]	–	–	50 to 100	pest or weed control at 50 µg/cm2 [2]: 50 to 100%
O=C(NCC(=S)NCC(F)(F)F)c1ccc(/C=C/C(c2cc(Cl)c(Cl)c(Cl)c2)C(F)(F)F)cc1C(F)(F)F (stereo not drawn) [P1559]	A (50-100)	A (50-100)	–	–
CCC[C@@H](NC(=O)c1ccc(/C=C/C(c2cc(Cl)c(Cl)c(Cl)c2)C(F)(F)F)cc1C)C(=O)NCC(F)(F)F (stereo partly drawn) [FA25]	–	–	50 to 100	pest or weed control at 50 µg/cm2 [2]: 50 to 100%
C[C@@H](NC(=O)c1ccc(/C=C/C(c2ccc(Cl)c([N+](=O)[O-])c2)C(F)(F)F)cc1C(F)(F)F)C(=O)NCC(F)(F)F (stereo partly drawn) [P732]	A (50-100)	A (50-100)	–	–
C[C@@H](NC(=O)c1ccc(/C=C/C(c2ccc(Br)c(Br)c2)C(F)(F)F)cc1Br)C(=O)NCC(F)(F)F (stereo partly drawn) [P568]	A (50-100)	A (50-100)	–	–
O=C(CNC(=O)c1ccc(/C=C/C(c2cc(Cl)c(Cl)c(Cl)c2)C(F)(F)F)cc1I)NCC(F)(F)F (stereo not drawn) [FA24]	–	–	50 to 100	pest or weed control at 50 µg/cm2 [2]: 50 to 100%
C[C@@H](NC(=O)c1ccc(/C=C/C(c2ccc(Cl)c(Cl)c2)C(C)(F)F)cc1Br)C(=O)NCC(F)(F)F (stereo partly drawn) [FA29]	–	–	50 to 100	pest or weed control at 50 µg/cm2 [2]: 50 to 100%
CC(NC(=O)c1ccc(/C=C/C(c2cc(Cl)c(Cl)c(Cl)c2)C(F)(F)F)cc1C(F)(F)F)C(=O)NCCC(F)(F)F (stereo not drawn) [P1633A]	A (50-100)	A (50-100)	–	–
O=C(CNC(=O)c1ccc(/C=C/C(c2cc(Cl)c(F)c(Cl)c2)C(F)(F)F)cc1C(F)(F)F)NCC(F)(F)F (stereo not drawn) [P1862]	A (50-100)	A (50-100)	–	–
Cc1cc(/C=C/C(c2cc(Cl)c(Cl)c(Cl)c2)C(F)(F)F)ccc1C(=O)NCCC(=O)NCC(F)(F)F (stereo not drawn) [P1641]	A (50-100)	A (50-100)	–	–
Cc1cc(C(/C=C/c2ccc(C(=O)N[C@H](C)C(=O)NCC(F)(F)F)c(C(F)(F)F)c2)C(F)(F)F)cc(Cl)c1Cl (stereo partly drawn) [FA20]	–	–	50 to 100	pest or weed control at 50 µg/cm2 [2]: 50 to 100%
CC(NC(=O)c1ccc(/C=C/C(c2cc(Cl)c(Cl)c(Cl)c2)C(F)(F)F)cc1Br)C(=O)NCCC(F)(F)F (stereo not drawn) [P1631A]	A (50-100)	A (50-100)	–	–
O=C(CNC(=O)c1ccc(/C=C/C(c2cccc(C(F)(F)F)c2)C(F)(F)F)cc1Br)NCC(F)(F)F (stereo not drawn) [P1]	A (50-100)	A (50-100)	–	–
CC(F)(F)CNC(=O)C(C)(C)NC(=O)c1ccc(/C=C/C(c2cc(Cl)c(Cl)c(Cl)c2)C(F)(F)F)cc1Br (stereo not drawn) [FA23]	–	–	50 to 100	pest or weed control at 50 µg/cm2 [2]: 50 to 100%
C[C@@H](NC(=O)c1ccc(/C=C/C(c2cc(Cl)c(Cl)c(Cl)c2)C(F)(F)C(F)(F)F)cc1Br)C(=O)NCC(F)(F)F (stereo partly drawn) [P1599]	A (50-100)	A (50-100)	–	–
O=C(CNC(=O)c1ccc(/C=C/C(c2cc(Cl)c(Cl)c(Cl)c2)C(F)(F)F)cc1Br)NCC(F)F (stereo not drawn) [FA3]	–	–	50 to 100	pest or weed control at 50 µg/cm2 [2]: 50 to 100%
C[C@@H](NC(=O)c1ccc(/C=C/C(c2ccc(Cl)c([N+](=O)[O-])c2)C(F)(F)F)cc1Br)C(=O)NCC(F)(F)F (stereo partly drawn) [P730]	A (50-100)	A (50-100)	–	–
C[C@@H](NC(=O)c1ccc(/C=C/C(c2cc(F)cc(Br)c2)C(F)(F)F)cc1C(F)(F)F)C(=O)NCC(F)(F)F (stereo partly drawn) [P300]	A (50-100)	A (50-100)	–	–
CCNC(=O)[C@@H](C)NC(=O)c1ccc(/C=C/C(c2cc(Cl)c(Cl)c(Cl)c2)C(F)(F)F)cc1Br (stereo partly drawn) [P1621]	A (50-100)	A (50-100)	–	–

Structure (SMILES)	CL Rating [1]	BAW Rating [2, 3]	pest or weed control at 50 µg/cm2 [1] [%]	also measured
C[C@@H](NC(=O)c1ccc(/C=C/C(c2cc(Cl)c(Br)c(Cl)c2)C(F)(F)F)cc1Br)C(=O)NCC(F)(F)F (stereo partly drawn) [FA22]	–	–	50 to 100	pest or weed control at 50 µg/cm2 [2]: 50 to 100%
Cc1cc(C(/C=C/c2ccc(C(=O)N[C@H](C)C(=O)NCC(F)(F)F)c(Br)c2)C(F)(F)F)cc(C)c1F (stereo partly drawn) [P514]	A (50-100)	A (50-100)	–	–
C[C@@H](NC(=O)c1ccc(/C=C/C(c2cc(Br)cc(Br)c2)C(F)(F)F)cc1Br)C(=O)NCC(F)F (stereo partly drawn) [P2036]	A (50-100)	A (50-100)	–	–
O=C(NCCc1ccc(Cl)nc1)c1ccc(/C=C/C(c2cc(Cl)c(Cl)c(Cl)c2)C(F)(F)F)cc1Br (stereo not drawn) [AC113]	–	–	–	BAW Rating ([2]; Table 3, beet armyworm): B (More than 0-Less than 50)
CC(C)(NC(=O)c1ccc(/C=C/C(c2cc(Cl)c(Cl)c(Cl)c2)C(F)(F)F)cc1C(F)(F)F)C(=S)NCC(F)(F)F (stereo not drawn) [FA12]	–	–	50 to 100	pest or weed control at 50 µg/cm2 [2]: 50 to 100%
CC(C)(NC(=O)c1ccc(/C=C/C(c2cc(Cl)c(Cl)c(Cl)c2)C(F)(F)F)cc1Cl)C(=S)NCC(F)(F)F (stereo not drawn) [FA9]	–	–	50 to 100	pest or weed control at 50 µg/cm2 [2]: 50 to 100%
Cc1cc(/C=C/C(c2cc(Cl)c(Cl)c(Cl)c2)C(F)(F)F)ccc1C(=O)NCC(=S)NCC(F)(F)F (stereo not drawn) [P1560]	A (50-100)	A (50-100)	–	–
O=C(NCC(=S)NCC(F)(F)F)c1ccc(/C=C/C(c2cc(Cl)c(Cl)c(Cl)c2)C(F)(F)F)cc1Br (stereo not drawn) [AC92, (E)-2-Bromo-N-(2-thioxo-2-((2,2,2-trifluoroethyl)amino)ethyl)-4-(4,4,4-trifluoro-3-(3,4,5-trichlorophenyl)but-1-en-1-yl)benzamide]	–	–	–	BAW Rating ([2]; Table 3, beet armyworm): A (50-100)
C[C@@H](NC(=O)c1ccc(/C=C/C(c2cc(Cl)c(Br)c(Cl)c2)C(F)(F)F)cc1C(F)(F)F)C(=O)NCC(F)(F)F (stereo partly drawn) [FA21]	–	–	50 to 100	pest or weed control at 50 µg/cm2 [2]: 50 to 100%
O=C(CNC(=O)c1cc(O)c(/C=C/C(c2cc(Cl)c(Cl)c(Cl)c2)C(F)(F)F)cc1Cl)NCC(F)(F)F (stereo not drawn) [FA4]	–	–	50 to 100	pest or weed control at 50 µg/cm2 [2]: 50 to 100%
C[C@@H](NC(=O)c1ccc(/C=C/C(c2cc(Br)cc(Br)c2)C(F)(F)F)cc1Br)C(=O)NCCF (stereo partly drawn) [P2041]	A (50-100)	A (50-100)	–	–
CCNC(=O)NCc1ccc(/C=C/C(c2cc(Cl)cc(Cl)c2)C(F)(F)F)cc1Cl (stereo not drawn) [CC31, (E)-1-(2-Chloro-4-(3-(3,5-dichlorophenyl)-4,4,4-trifluorobut-1-en-1-yl)benzyl)-3-ethylurea]	–	–	–	BAW Rating ([2]; Table 3, beet armyworm): B (More than 0-Less than 50)
C[C@@H](NC(=O)c1ccc(/C=C/C(c2ccc(F)c(F)c2F)C(F)(F)F)cc1C(F)(F)F)C(=O)NCC(F)(F)F (stereo partly drawn) [P84]	A (50-100)	A (50-100)	–	–
CS(=O)(=O)c1cc(/C=C/C(c2cc(Cl)c(F)c(Cl)c2)C(F)(F)F)ccc1C(=O)NCC(=O)NCC(F)(F)F (stereo not drawn) [FA34]	–	–	50 to 100	–
O=C(NCc1ccc(/C=C/C(c2cc(Cl)c(Cl)c(Cl)c2)C(F)(F)F)cc1C(F)(F)F)c1cccnc1 (stereo not drawn) [CC23]	–	–	–	BAW Rating ([2]; Table 3, beet armyworm): A (50-100)
N#Cc1c(F)cc(C(/C=C/c2ccc(C(=O)NCC(=O)NCC(F)(F)F)c(Br)c2)C(F)(F)F)cc1F (stereo not drawn) [P2]	A (50-100)	–	–	–
O=C(CNC(=O)c1ccc(/C=C/C(c2cc(Cl)c(O)c(Cl)c2)C(F)(F)F)cc1Br)NCC(F)(F)F (stereo not drawn) [FA13]	–	–	50 to 100	–
O=C(CCNC(=O)c1ccc(/C=C/C(c2cc(Cl)c(Cl)c(Cl)c2)C(F)(F)F)cc1C(F)(F)F)NCC(F)(F)F (stereo not drawn) [P1640]	A (50-100)	–	–	–
O=C(NC1CCN(C2COC2)CC1)c1ccc(/C=C/C(c2cc(Cl)c(Cl)c(Cl)c2)C(F)(F)F)cc1Br (stereo not drawn) [AC108, (E)-2-Bromo-N-(1-(oxetan-3-yl)piperidin-4-yl)-4-(4,4,4-trifluoro-3-(3,4,5-trichlorophenyl)but-1-en-1-yl)benzamide]	–	–	–	BAW Rating ([2]; Table 3, beet armyworm): B (More than 0-Less than 50)
C[C@@H](NC(=O)c1ccc(/C=C/C(c2cc(F)cc(Br)c2)C(F)(F)F)cc1Br)C(=O)NCC(F)(F)F (stereo partly drawn) [P298]	A (50-100)	–	–	–
N#CCN1CCC(NC(=O)c2ccc(/C=C/C(c3cc(Cl)c(Cl)c(Cl)c3)C(F)(F)F)cc2Br)CC1 (stereo not drawn) [AC107]	–	–	–	BAW Rating ([2]; Table 3, beet armyworm): B (More than 0-Less than 50)
FC(F)(F)C(/C=C/c1ccc(-n2cncn2)cc1)c1ccccc1 (stereo not drawn) [DC3]	–	–	–	BAW Rating ([2]; Table 3, beet armyworm): B (More than 0-Less than 50)
